Laboratory results: ChEMBL document CHEMBL1134430, “Synthesis and biological activity of novel macrocyclic antifungals: acylated conjugates of the ornithine moiety of the lipopeptidolactone FR901469” (2001)
In brackets after ≈: the same amount, converted by molar mass.

Assays:
Format in all cases: functional
Candida parapsilosis = test: Minimum inhibitory concentration against Candida parapsilosis 15001 strain; details: Lodderomyces parapsilosis
Candida albicans [1] = test: Minimum inhibitory concentration against Candida albicans FP579 strain
Candida albicans [2] = test: Minimum inhibitory concentration against Candida albicans FP633 strain
[3] = test system: Meyerozyma guilliermondii; test: Minimum inhibitory concentration against Candida guilliermondii FP587 strain
Candida tropicalis [4] = test: Minimum inhibitory concentration against Candida tropicalis 8001 strain
Mus musculus [5] = organism: Mus musculus; test: Hemolytic ability to hemolyze ICR mouse RBCs in microtiter red blood cell hemolysis assay; design: concentration or dose not given beside the values
Candida tropicalis [6] = test: Minimum inhibitory concentration against Candida tropicalis 8002 strain
Mus musculus [7] = test: In vivo activity in Disseminated Murine Candidiasis Model
Aspergillus fumigatus = test: In vitro minimum inhibitory concentration against Aspergillus fumigatus TIMM0063 FPI305 was determined by the broth microdilution method.
Mus musculus [8] = test: (§1) Ratio of In vivo activity of drug in Disseminated Murine Candidiasis Model to that of In vivo activity of FR-901469 in Disseminated Murine Candidiasis Model
[9] = as §1

SMILES	MIC (Candida parapsilosis) [µg/mL]	MIC (Candida albicans [1]) [µg/mL]	MIC (Candida albicans [2]) [µg/mL]	MIC [3] [µg/mL]	MIC (Candida tropicalis [4]) [µg/mL]	Hemolysis (Mus musculus [5]) [%]	MIC (Candida tropicalis [6]) [µg/mL]	ED50 (Mus musculus [7]) [mg/kg]	MIC (Aspergillus fumigatus) [µg/mL]	Ratio (Mus musculus [8])	Ratio [9]
CCCCCCCCCCCCC[C@@H]1CC(=O)N[C@H]([C@@H](C)O)C(=O)N[C@H](C)C(=O)N[C@@H](Cc2ccc(O)cc2)C(=O)N[C@@H](C(C)C)C(=O)N2C[C@H](O)C[C@H]2C(=O)N[C@H]([C@@H](C)O)C(=O)N[C@@H]([C@@H](C)O)C(=O)N2CC[C@H](O)[C@H]2C(=O)N[C@@H]([C@H](O)CC(N)=O)C(=O)NCC(=O)N[C@H]([C@@H](C)O)C(=O)N[C@@H](CCCNC(=O)CNC)C(=O)O1.Cl	0.39	0.39	0.2	0.39	0.78	54	0.78				
C[C@@H]1[C@H](O)[C@@H](C)/C=C/C=C/C=C/C=C/C=C/C=C/C=C/[C@H](O[C@@H]2O[C@H](C)[C@@H](O)[C@H](N)[C@@H]2O)C[C@@H]2O[C@](O)(C[C@@H](O)C[C@@H](O)[C@H](O)CC[C@@H](O)C[C@@H](O)CC(=O)O[C@H]1C)C[C@H](O)[C@H]2C(=O)O [AMPHOTERICIN B]								0.132			
CCCCCCCCCCCCC[C@@H]1CC(=O)N[C@H]([C@@H](C)O)C(=O)N[C@H](C)C(=O)N[C@@H](Cc2ccc(O)cc2)C(=O)N[C@@H](C(C)C)C(=O)N2C[C@H](O)C[C@H]2C(=O)N[C@H]([C@@H](C)O)C(=O)N[C@@H]([C@@H](C)O)C(=O)N2CC[C@H](O)[C@H]2C(=O)N[C@@H]([C@H](O)CC(N)=O)C(=O)NCC(=O)N[C@H]([C@@H](C)O)C(=O)N[C@@H](CCCNC(=O)CO)C(=O)O1	0.78 (≈ 0.49 µM)	0.78 (≈ 0.49 µM)	0.39 (≈ 0.245 µM)	0.39 (≈ 0.245 µM)	1.56 (≈ 0.98 µM)	9	0.78 (≈ 0.49 µM)				
OC(Cn1cncn1)(Cn1cncn1)c1ccc(F)cc1F [FLUCONAZOLE]								> 20			
CCCCCCCCCCCCC[C@@H]1CC(=O)N[C@H]([C@@H](C)O)C(=O)N[C@H](C)C(=O)N[C@@H](Cc2ccc(O)cc2)C(=O)N[C@@H](C(C)C)C(=O)N2C[C@H](O)C[C@H]2C(=O)N[C@H]([C@@H](C)O)C(=O)N[C@@H]([C@@H](C)O)C(=O)N2CC[C@H](O)[C@H]2C(=O)N[C@@H]([C@H](O)CC(N)=O)C(=O)NCC(=O)N[C@H]([C@@H](C)O)C(=O)N[C@@H](CCCNC(=O)CCCCCN)C(=O)O1.Cl	0.39	0.78	0.39	0.78	0.78	14	0.78				
CCCCCCCCCCCCC[C@@H]1CC(=O)N[C@H]([C@@H](C)O)C(=O)N[C@H](C)C(=O)N[C@@H](Cc2ccc(O)cc2)C(=O)N[C@@H](C(C)C)C(=O)N2C[C@H](O)C[C@H]2C(=O)N[C@H]([C@@H](C)O)C(=O)N[C@@H]([C@@H](C)O)C(=O)N2CC[C@H](O)[C@H]2C(=O)N[C@@H]([C@H](O)CC(N)=O)C(=O)NCC(=O)N[C@H]([C@@H](C)O)C(=O)N[C@@H](CCCNC(=O)CN(C)C)C(=O)O1.Cl	0.39	0.78	0.39	0.2	0.78	10	0.78	9.1	0.5	10.4	
CCCCCCCCCCCCC[C@@H]1CC(=O)N[C@H]([C@@H](C)O)C(=O)N[C@H](C)C(=O)N[C@@H](Cc2ccc(O)cc2)C(=O)N[C@@H](C(C)C)C(=O)N2C[C@H](O)C[C@H]2C(=O)N[C@H]([C@@H](C)O)C(=O)N[C@@H]([C@@H](C)O)C(=O)N2CC[C@H](O)[C@H]2C(=O)N[C@@H]([C@H](O)CC(N)=O)C(=O)NCC(=O)N[C@H]([C@@H](C)O)C(=O)N[C@@H](CCCNC(=O)[C@@H](N)CCCN)C(=O)O1.Cl	0.39	0.78	0.39	0.39	1.56	20	1.56	0.54	0.5		0.8
CCCCCCCCCCCCC[C@@H]1CC(=O)N[C@H]([C@@H](C)O)C(=O)N[C@H](C)C(=O)N[C@@H](Cc2ccc(O)cc2)C(=O)N[C@@H](C(C)C)C(=O)N2C[C@H](O)C[C@H]2C(=O)N[C@H]([C@@H](C)O)C(=O)N[C@@H]([C@@H](C)O)C(=O)N2CC[C@H](O)[C@H]2C(=O)N[C@@H]([C@H](O)CC(N)=O)C(=O)NCC(=O)N[C@H]([C@@H](C)O)C(=O)N[C@@H](CCCNC(=O)CCCN)C(=O)O1.Cl	0.78	1.56	0.78	0.78	1.56	30	0.78				
CCCCCCCCCCCCC[C@@H]1CC(=O)N[C@H]([C@@H](C)O)C(=O)N[C@H](C)C(=O)N[C@@H](Cc2ccc(O)cc2)C(=O)N[C@@H](C(C)C)C(=O)N2C[C@H](O)C[C@H]2C(=O)N[C@H]([C@@H](C)O)C(=O)N[C@@H]([C@@H](C)O)C(=O)N2CC[C@H](O)[C@H]2C(=O)N[C@@H]([C@H](O)CC(N)=O)C(=O)NCC(=O)N[C@H]([C@@H](C)O)C(=O)N[C@@H](CCCNC(=O)[C@@H]2CCN2)C(=O)O1.Cl	0.78	0.78	0.39	0.78	0.39	27	0.39				
CCCCCCCCCCCCC[C@@H]1CC(=O)N[C@H]([C@@H](C)O)C(=O)N[C@H](C)C(=O)N[C@@H](Cc2ccc(O)cc2)C(=O)N[C@@H](C(C)C)C(=O)N2C[C@H](O)C[C@H]2C(=O)N[C@H]([C@@H](C)O)C(=O)N[C@@H]([C@@H](C)O)C(=O)N2CC[C@H](O)[C@H]2C(=O)N[C@@H]([C@H](O)CC(N)=O)C(=O)NCC(=O)N[C@H]([C@@H](C)O)C(=O)N[C@@H](CCCNC(=O)CCN)C(=O)O1.Cl	0.39	0.39	0.39	0.39	0.78	44	0.78				
CCCCCCCCCCCCC[C@@H]1CC(=O)N[C@H]([C@@H](C)O)C(=O)N[C@H](C)C(=O)N[C@@H](Cc2ccc(O)cc2)C(=O)N[C@@H](C(C)C)C(=O)N2C[C@H](O)C[C@H]2C(=O)N[C@H]([C@@H](C)O)C(=O)N[C@@H]([C@@H](C)O)C(=O)N2CC[C@H](O)[C@H]2C(=O)N[C@@H]([C@H](O)CC(N)=O)C(=O)NCC(=O)N[C@H]([C@@H](C)O)C(=O)N[C@@H](CCCN)C(=O)O1.Cl	0.39	0.39	0.39	0.39	0.39	100	0.39	0.44	0.5		
CCCCCCCCCCCCC[C@@H]1CC(=O)N[C@H]([C@@H](C)O)C(=O)N[C@H](C)C(=O)N[C@@H](Cc2ccc(O)cc2)C(=O)N[C@@H](C(C)C)C(=O)N2C[C@H](O)C[C@H]2C(=O)N[C@H]([C@@H](C)O)C(=O)N[C@@H]([C@@H](C)O)C(=O)N2CC[C@H](O)[C@H]2C(=O)N[C@@H]([C@H](O)CC(N)=O)C(=O)NCC(=O)N[C@H]([C@@H](C)O)C(=O)N[C@@H](CCCNC(=O)CN)C(=O)O1.Cl	0.78	0.78	0.39	0.78	0.78	67	0.78		0.5		
CCCCCCCCCCCCC[C@@H]1CC(=O)N[C@H]([C@@H](C)O)C(=O)N[C@H](C)C(=O)N[C@@H](Cc2ccc(O)cc2)C(=O)N[C@@H](C(C)C)C(=O)N2C[C@H](O)C[C@H]2C(=O)N[C@H]([C@@H](C)O)C(=O)N[C@@H]([C@@H](C)O)C(=O)N2CC[C@H](O)[C@H]2C(=O)N[C@@H]([C@H](O)CC(N)=O)C(=O)NCC(=O)N[C@H]([C@@H](C)O)C(=O)N[C@@H](CCCNC(=O)CCCCN)C(=O)O1.Cl	0.39	0.78	0.39	0.39	0.78	20	0.78				
CCCCCCCCCCCCC[C@@H]1CC(=O)N[C@H]([C@@H](C)O)C(=O)N[C@H](C)C(=O)N[C@@H](Cc2ccc(O)cc2)C(=O)N[C@@H](C(C)C)C(=O)N2C[C@H](O)C[C@H]2C(=O)N[C@H]([C@@H](C)O)C(=O)N[C@@H]([C@@H](C)O)C(=O)N2CC[C@H](O)[C@H]2C(=O)N[C@@H]([C@H](O)CC(N)=O)C(=O)NCC(=O)N[C@H]([C@@H](C)O)C(=O)N[C@@H](CCCNC(C)=O)C(=O)O1	1.56 (≈ 0.99 µM)	0.78 (≈ 0.495 µM)	0.39 (≈ 0.247 µM)	0.78 (≈ 0.495 µM)	1.56 (≈ 0.99 µM)	5	1.56 (≈ 0.99 µM)	4	1 (≈ 0.635 µM)	6.2	
